Where two headings read alike, the source gives them in different places.
Legend:
[1] = test system: MDCK cells; assay: MTT cytotoxicity assay on MDCK cells; type: cell-based, canine; settings: Canis lupus familiaris, 100 μmol/L, 24 h, mean ± SD of three replicates, read-out: Growth Inhibition Rate (%)
Description: First, we used the MTT method to perform cytotoxicity of barbatic acid derivatives (1, 6a–6p′) on MDCK cells at the concentration of 100 μmol/L, and the results are shown in Table 1.
The MTT assay was used to evaluate the cytotoxicity of the target compounds on DMCK cells. Logarithmic-growth-phase DMCK cells were seeded in a 96-well plate (10^4 cells/well) and incubated in a cell culture incubator for 24 h. The culture medium was then removed and replaced with a drug-containing medium for the treatment groups (1, 6a–6p′, 100 μmol/L), normal saline for the control group, or hydrochlorothiazide (100 μmol/L) for the positive control group. Each well was treated with 100 µL of the respective solution and incubated for an additional 24 h. The culture medium was then removed and replaced with a DMEM solution containing 20 µL of MTT (5 mg/mL). After incubating for 4 h, the liquid in each well was removed and replaced with 150 µL of DMSO, which was shaken for 10 min to ensure thorough mixing. The absorbance at 490 nm was measured to determine the optical density (OD) of each well. Cell growth inhibition rate (%) = (ODBlank − ODExperimental)/ODBlank × 100%.

[2] = test system: Na^+ transport, MDCK cells; assay: In vitro diuretic activity: Na^+ transport inhibition, Transwell chamber seeded with MDCK cells; type: cell-based, canine; settings: for inhibition at 100 µM: Canis lupus familiaris, MDCK; for inhibition at 100 µM / Transport Inhibition Rate (%) Na^+: mean ± SD of three replicates, negative = promotion
From the text: (§1) The traditional methods for screening diuretic drugs are mostly in vivo experiments with mice, which have a long experimental cycle and are not suitable for screening massive compounds. As we know, the generation and excretion of urine involve two processes: glomerular filtration and tubular reabsorption. Reabsorption refers to the process in which the renal tubular epithelial cells transport water and certain solutes from the tubular fluid (urine) partially or entirely back into the bloodstream. Then, 99% of the water in the original urine filtered by the glomerulus is reabsorbed, and the transport of Na^+ and Cl^− plays an important role in this process. Thiazide and furosemide diuretics exert their diuretic effects by inhibiting the transport of Na^+ and Cl^−, which affects the tubular reabsorption of the original urine. Based on this principle, we established a new type of cell screening model for diuretic active drugs. Madin–Darby canine kidney (MDCK) cells were inoculated into a Transwell chamber to simulate the renal tubules. This cell model could transport and absorb external NaCl, simulating the reabsorption phenomenon. […] The effectiveness of this model was confirmed by the validation of hydrochlorothiazide, which is a commercially available diuretic drug and could inhibit the transport of Na^+ and Cl^− in renal tubules.
(§2) Generally, the transport of Na^+ and Cl^− plays an important role in glomerular filtration and tubular reabsorption. […] For example, inhibition rates of transport of 6a and 6c were over 30%, and had better inhibitory ability than barbatic acid. […] When ethyl, propyl, and benzyl were substituted on R^1, the introduction of any group could not enhance the inhibitory activity of barbatic acid, such as 6h–u and 6j′–6p′.
(§3) Log-phase MDCK cells were seeded in the upper chambers of Transwell plates (4 × 10^4 cells/well), and 800 µL of complete culture medium was added to the lower chambers. After 24 h of incubation at 37 °C, the electrical resistance of the upper chamber cells was measured one by one (R = (Rcell − Rblank) × 0.04π). When the electrical resistance of the upper chamber cells reached ≥300 Ω cm^2, the upper chamber medium was removed and replaced with the drug solution. The blank group (given normal saline), the experimental group (1, 6a–6p′, 100 μmol/L), and the hydrochlorothiazide group (100 μmol/L) were set, and each well was treated with 100 µL of the corresponding solution. The cells were then further incubated for 24 h. After that, the upper and lower chamber fluids were removed, and 200 µL of NaCl solution (15 mg/mL) was added to the upper chamber, while 800 µL of DMEM was added to the lower chamber for continued incubation. At 0.5, 1, 2, and 3 h, 50 µL of the lower chamber fluid was taken and the OD values were measured using Na^+ and Cl^− detection kits. The transport inhibition rate (%) was calculated as follows: transport inhibition rate (%) = (ODblank − ODexperimental)/ODblank × 100%.

[3] = test system: Cl^− transport, MDCK cells; assay: In vitro diuretic activity: Cl^− transport inhibition, Transwell chamber seeded with MDCK cells; type: cell-based, canine; settings: Canis lupus familiaris, read-out: Transport Inhibition Rate (%) Cl^−
From the text: as §1, §2, §3

[4] = test system: Ca^2+ transport, MDCK cells; assay: In vitro litholytic activity: Ca^2+ transport inhibition, Transwell chamber with MDCK cells; type: cell-based, canine; settings: Canis lupus familiaris, 100 μmol/L, mean ± SD of three replicates, read-out: Transport Inhibition Rate (%) Ca^2+
Description: (§4) On the other hand, all compounds had little inhibitory effect on Ca^2+ transport. The structure–activity relationships (SARs) were also observed. […] On the other hand, the introduction of the benzyl group to the R^1 or R^2 of barbatic acid could not lead to more promising compounds, such as 6a, 6n, 6u, 6b′, and 6i′–p′.
(§5) Logarithmic-phase DMCK cells were inoculated in the upper chamber of a Transwell plate (4 × 10^4 cells/well). Then, 800 µL of complete culture medium was added to the lower chamber, and the cells were incubated for 24 h until they adhered to the wall. The resistance value of the upper chamber cells was measured one by one at 37 °C (R = (Rcell − Rblank) × 0.04π). When the resistance value of the upper chamber cells was ≥300 Ω cm^2, the upper chamber liquid was discarded for drug administration. A control group (given physiological saline) and an experimental group (1, 6a–6p′, 100 μmol/L) were set up, and 100 µL of each drug was administered per well, followed by continued incubation for 24 h. Then, the upper and lower chamber liquids were discarded, and 200 µL of CaC2O4 (30 mmol/L) solution was added to the upper chamber, and 800 µL of PBS solution was added to the lower chamber for continued incubation. At 0.5, 1, 2, and 3 h, 50 µL of the lower chamber liquid was taken and then tested using the Ca^2+ and C2O4^2− detection kits and the following detection methods. The transport inhibition rate (%) = (ODblank − ODexperimental)/ODblank × 100%.

[5] = test system: C2O4^2− transport, MDCK cells; assay: In vitro litholytic activity: C2O4^2− transport inhibition, Transwell chamber with MDCK cells; type: cell-based, canine; settings: Canis lupus familiaris; 100 μmol/L, MDCK cells in Transwell; mean ± SD of three replicates; read-out: Transport Inhibition Rate (%) C2O4^2−
Description: as §4, §5

[6] = 100 μmol/L, MDCK cells in Transwell, read-out: Transport Inhibition Rate (%) Na^+
[7] = 100 μmol/L, MDCK cells in Transwell, mean ± SD of three replicates, negative = promotion
[8] = 100 μmol/L, MDCK cells in Transwell

Row | SMILES | inhibition at 100 µM [1] | inhibition at 100 µM [2, 6] | inhibition at 100 µM [3, 7] | inhibition at 100 µM [4] | inhibition at 100 µM [5] | melting point | Transport Inhibition Rate (%) Na^+ [2, 8] | Na^+ transport inhibition rate at 1, 2, and 3 h ([2]; evaluated at 1, 2, and 3 h (Figure 3)) | inhibition at 100 µM ([2]; read-out: Transport Inhibition Rate (%) Na^+, 100 μmol/L, MDCK cells in Transwell) | inhibition at 100 µM ([3]; MDCK)
1 | CCCOc1cc(C)c(C(=O)Oc2cc(C)c(C(=O)OC)c(O)c2C)c(O)c1C [Compound 6o, 3-hydroxy-4-(methoxycarbonyl)-2,5-dimethylphenyl 2-hydroxy-3,6-dimethyl-4-propoxybenzoate] | < 0% | -2.68 ± 0.45% | -2.8 ± 1.2% | 4.43 ± 0.13% | 5.6 ± 3.85% | 110 to 113 °C | – | – | – | –
2 | COc1cc(C)c(C(=O)Oc2cc(C)c(C(=O)OCc3ccccc3)c(O)c2C)c(O)c1C [Compound 6a, Benzyl 2-hydroxy-4-((2-hydroxy-4-methoxy-3,6-dimethylbenzoyl)oxy)-3,6-dimethylbenzoate] | < 0% | > 30% | 8.76 ± 0.25% | -7.98 ± 0.17% | -16.6 ± 0.37% | 113 to 115 °C | 33.51 ± 5.95% | – | – | –
3 | Cc1cc(OC(=O)c2c(C)cc(OC(C)C)c(C)c2O)c(C)c(O)c1C(=O)OCc1ccccc1 [6b′, benzyl 2-hydroxy-4-(2-hydroxy-4-isopropoxy-3,6-dimethylbenzoyloxy)-3,6-dimethylbenzoate] | < 0% | > 30% | 15.9 ± 0.25% | 0.73 ± 0.08% | -20.6 ± 1.31% | 83 to 86 °C | 33.08 ± 0.35% | above 20% | – | –
4 | C=CCOC(=O)c1c(C)cc(OC(=O)c2c(C)cc(OCCC)c(C)c2O)c(C)c1O [Compound 6r, allyl 2-hydroxy-4-(2-hydroxy-3,6-dimethyl-4-propoxybenzoyloxy)-3,6-dimethylbenzoate] | < 0% | 1.14 ± 1.25% | -10.3 ± 1.4% | 5.85 ± 0.36% | 9.67 ± 4.6% | 98 to 111 °C | – | – | – | –
5 | CCCOC(=O)c1c(C)cc(OC(=O)c2c(C)cc(OCc3ccccc3)c(C)c2O)c(C)c1O [6l′, 3-hydroxy-2,5-dimethyl-4-(propoxycarbonyl)phenyl 4-(benzyloxy)-2-hydroxy-3,6-dimethylbenzoate] | 2.11 ± 0.9% | -18.2 ± 0.2% | -2.92 ± 2.15% | -2.68 ± 0.39% | 16.5 ± 4.38% | 115 to 118 °C | – | – | – | –
6 | C=CCOC(=O)c1c(C)cc(OC(=O)c2c(C)cc(OCc3ccccc3)c(C)c2O)c(C)c1O [6n′, allyl 4-(4-(benzyloxy)-2-hydroxy-3,6-dimethylbenzoyloxy)-2-hydroxy-3,6-dimethylbenzoate] | < 0% | -1.85 ± 0.8% | -13 ± 0.15% | 0.1 ± 0.3% | -29.4 ± 3.89% | 127 to 130 °C | – | – | – | –
7 | Cc1cc(OC(=O)c2c(C)cc(OC(C)C)c(C)c2O)c(C)c(O)c1C(=O)OCC#N [6a′, 4-((cyanomethoxy)carbonyl)-3-hydroxy-2,5-dimethylphenyl 2-hydroxy-4-isopropoxy-3,6-dimethylbenzoate] | < 0% | -15.8 ± 4.85% | -10 ± 1.95% | -0.91 ± 0.11% | -13.2 ± 1.67% | 155 to 158 °C | – | – | – | –
8 | CCCOc1cc(C)c(C(=O)Oc2cc(C)c(C(=O)OCc3ccccc3)c(O)c2C)c(O)c1C [Compound 6u, benzyl 2-hydroxy-4-(2-hydroxy-3,6-dimethyl-4-propoxybenzoyloxy)-3,6-dimethylbenzoate] | < 0% | 6.31 ± 2.35% | -15.9 ± 0.55% | 0.77 ± 0.09% | 22.3 ± 5.04% | 111 to 114 °C | – | – | – | –
9 | Cc1cc(OCc2ccccc2)c(C)c(O)c1C(=O)Oc1cc(C)c(C(=O)OCc2ccccc2)c(O)c1C [6p′, benzyl 4-(4-(benzyloxy)-2-hydroxy-3,6-dimethylbenzoyloxy)-2-hydroxy-3,6-dimethylbenzoate] | < 0% | 16.3 ± 0.1% | -5.43 ± 0.85% | -3.34 ± 0.26% | 7.16 ± 1.56% | 153 to 157 °C | – | – | – | –
10 | COC(=O)c1c(C)cc(OC(=O)c2c(C)cc(OCc3ccccc3)c(C)c2O)c(C)c1O [6j′, 3-hydroxy-4-(methoxycarbonyl)-2,5-dimethylphenyl 4-(benzyloxy)-2-hydroxy-3,6-dimethylbenzoate] | < 0% | -5.13 ± 0.25% | 0.62 ± 0.8% | 0% | -1.79 ± 3.79% | 131 to 134 °C | – | – | – | –
11 | C=CCOc1cc(C)c(C(=O)Oc2cc(C)c(C(=O)OCC)c(O)c2C)c(O)c1C [6d′, 4-(ethoxycarbonyl)-3-hydroxy-2,5-dimethylphenyl 4-(allyloxy)-2-hydroxy-3,6-dimethylbenzoate] | 1.42% | -7.24 ± 0.75% | -5.06 ± 0.35% | 2.04 ± 0.03% | 0.52 ± 1.86% | 116 to 120 °C | – | – | – | –
12 | C=CCOc1cc(C)c(C(=O)Oc2cc(C)c(C(=O)OCCC)c(O)c2C)c(O)c1C [6e′, 3-hydroxy-2,5-dimethyl-4-(propoxycarbonyl)phenyl 4-(allyloxy)-2-hydroxy-3,6-dimethylbenzoate] | < 0% | 2.79 ± 0.25% | -12.9 ± 0.85% | 2.04 ± 0.08% | 5.77 ± 3.15% | – | – | – | – | –
13 | NS(=O)(=O)c1cc2c(cc1Cl)NCNS2(=O)=O [Hyd, hydrochlorothiazide, reference compound] | < 0% | – | – | – | – | – | – | – | 25.1 ± 0.85% | 19.7 ± 1%
